Assay [1] has as its target T1, human glucocorticoid receptor-α [GRX] isoform (Homo sapiens, UniProt P04150).
T1 construct: host or cells: insect SF21 cells (baculovirus)
T1 sequence (P04150 1-777): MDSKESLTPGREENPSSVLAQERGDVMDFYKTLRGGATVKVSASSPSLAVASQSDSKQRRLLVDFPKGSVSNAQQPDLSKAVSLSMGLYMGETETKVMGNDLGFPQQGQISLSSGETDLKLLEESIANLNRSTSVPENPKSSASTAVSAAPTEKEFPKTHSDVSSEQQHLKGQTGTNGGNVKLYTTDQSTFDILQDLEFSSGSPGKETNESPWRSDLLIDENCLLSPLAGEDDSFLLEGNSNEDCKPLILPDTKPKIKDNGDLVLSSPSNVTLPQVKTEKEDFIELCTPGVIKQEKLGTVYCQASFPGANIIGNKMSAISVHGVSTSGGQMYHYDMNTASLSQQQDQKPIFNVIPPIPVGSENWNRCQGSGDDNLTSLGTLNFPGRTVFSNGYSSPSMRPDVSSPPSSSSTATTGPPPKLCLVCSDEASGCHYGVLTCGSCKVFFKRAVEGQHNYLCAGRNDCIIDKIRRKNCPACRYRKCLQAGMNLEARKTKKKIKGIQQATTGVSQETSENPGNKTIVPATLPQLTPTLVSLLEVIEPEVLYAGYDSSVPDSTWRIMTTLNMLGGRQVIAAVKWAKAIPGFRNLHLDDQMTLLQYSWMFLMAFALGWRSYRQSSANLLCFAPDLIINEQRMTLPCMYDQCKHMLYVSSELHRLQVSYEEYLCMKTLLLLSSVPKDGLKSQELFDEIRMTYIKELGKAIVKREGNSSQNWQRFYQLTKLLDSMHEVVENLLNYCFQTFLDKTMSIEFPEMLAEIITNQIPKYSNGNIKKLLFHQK
The assay is described as follows: Radioligand binding with human glucocorticoid receptor cytosol ([3H]-dexamethasone competition).

Assay [2] concerns the target T2, human progesterone receptor-A [PRA] isoform (Homo sapiens, UniProt P06401).
T2 construct: host or cells: insect SF21 cells (baculovirus)
T2 sequence (P06401 1-769 isoform P06401-2): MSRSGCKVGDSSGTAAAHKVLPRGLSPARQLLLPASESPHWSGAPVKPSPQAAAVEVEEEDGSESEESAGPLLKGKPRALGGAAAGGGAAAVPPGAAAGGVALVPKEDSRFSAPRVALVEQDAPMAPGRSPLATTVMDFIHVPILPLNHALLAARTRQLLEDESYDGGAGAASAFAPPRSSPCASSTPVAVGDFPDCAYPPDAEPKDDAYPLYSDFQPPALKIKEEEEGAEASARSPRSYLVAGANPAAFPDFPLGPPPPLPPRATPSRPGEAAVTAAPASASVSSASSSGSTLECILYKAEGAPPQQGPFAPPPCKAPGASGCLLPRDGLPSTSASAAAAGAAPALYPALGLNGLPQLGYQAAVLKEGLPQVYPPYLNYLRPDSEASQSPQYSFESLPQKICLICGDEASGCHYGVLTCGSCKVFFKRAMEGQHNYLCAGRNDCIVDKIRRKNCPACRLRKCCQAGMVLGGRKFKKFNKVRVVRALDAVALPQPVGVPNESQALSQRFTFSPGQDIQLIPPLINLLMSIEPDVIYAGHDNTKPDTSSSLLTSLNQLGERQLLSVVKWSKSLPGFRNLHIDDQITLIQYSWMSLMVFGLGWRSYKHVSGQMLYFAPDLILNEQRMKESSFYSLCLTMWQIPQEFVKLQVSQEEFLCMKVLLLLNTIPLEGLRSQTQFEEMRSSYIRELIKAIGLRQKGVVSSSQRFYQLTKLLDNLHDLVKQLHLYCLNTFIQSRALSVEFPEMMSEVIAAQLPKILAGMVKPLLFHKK
Kind of assay: Radioligand binding with human progesterone receptor cytosol ([3H]-progesterone competition). To be noted: read-out: Ki (nM) PR.

Setting [3] is: GRX cytosol expressed in insect SF21 cells, [3H]-Dex ~0.9 nM, 4° C. overnight, Ki by Cheng-Prusoff, KL ~[…], read-out: Ki (nM) GR.
[4] abbreviates: PRA cytosol expressed in insect SF21 cells, [3H]Prog ~0.8 nM, 4° C. overnight, Ki by Cheng-Prusoff, KL ~4.5 nM.

Where two headings read alike, the source gives them in different places.

Regarding `COc1cccc2c1-c1ccc3c(c1C([C@@H]1C=C(CSC)CCC1)O2)C(C)=CC(C)(C)N3` (stereo in doubt) [Example 166], the inhibition constant (Ki) amounted to 8.16 nM in assay [1] (setting [3]) and 5630 nM in assay [2] (setting [4]).

Consider `COc1cccc2c1-c1ccc3c(c1C(c1cccc(CCN(C)C)c1)O2)C(C)=CC(C)(C)N3` (stereo not shown) [Example 318, 2,5-Dihydro-10-methoxy-5-(3-(2-(N,N-dimethylamino)ethyl)phenyl)-2,2,4-trimethyl-1H-[1]benzopyrano[3,4-f]quinoline], for which the Ki is 553 nM in assay [1] (setting [3]) and ≥ 10000 nM in assay [2] (setting [4]).

For `COc1cccc2c1-c1ccc3c(c1C(c1cc(C)cc(C)c1)O2)C(C)=CC(C)(C)N3` (stereo not shown) [Example 27, 5-(3,5-Dimethylphenyl)-2,5-dihydro-10-methoxy-2,2,4-trimethyl-1H-[1]benzopyrano[3,4-f]quinoline], the figures for the Ki in assay [1] (Ki (nM) GR) and in assay [2] (setting [4]) were 5.2 nM and 3580 nM, respectively.

As to `COc1c(O)ccc2c1-c1ccc3c(c1C(=Cc1ccccc1)O2)C(C)=CC(C)(C)N3` [Example 430, 9-Hydroxy-10-methoxy-5-(phenylmethylene)-2,2,4-trimethyl-1H-2,5-dihydro-[1]benzopyrano[3,4-f]quinoline], the Ki in assay [1] (setting [3]) amounted to 4.8 nM; in assay [2] (setting [4]), 281 nM.

In the case of `COc1cccc2c1-c1ccc3c(c1C(C#N)O2)C(C)=CC(C)(C)N3` (stereo not shown) [Example 44, 2,5-Dihydro-10-methoxy-2,2,4-trimethyl-1H-[1]benzopyrano[3,4-f]quinoline-5-carbonitrile], the Ki stood at 190 nM in assay [1] (setting [3]) and 19500 nM in assay [2] (setting [4]).

Take `COc1cccc2c1-c1ccc3c(c1C(CC=C1CCCC1)O2)C(C)=CC(C)(C)N3` (stereo not shown) [Example 188, 2,5-Dihydro-10-methoxy-5-(2-cyclopentylidenylethyl)-2,2,4-trimethyl-1H-[1]benzopyrano[3,4-f]quinoline]: the inhibition constant Ki stood at 4.9 nM in assay [1] (Ki (nM) GR) and 5300 nM in assay [2] (setting [4]).

As to `COc1ccc(C2Oc3ccc(O)c(OC)c3-c3ccc4c(c32)C(C)=CC(C)(C)N4)s1` (stereo not shown) [Example 268, 2,5-Dihydro-9-hydroxy-10-methoxy-2,2,4-trimethyl-5-(5-methoxy-2-thienyl)-1H-[1]benzopyrano[3,4-f]quinoline], the Ki in assay [1] (setting [3]) turned out to be 0.84 nM; in assay [2] (setting [4]) it was 486 nM.

Regarding `C=CCC1Oc2cccc(C#N)c2-c2ccc3c(c21)C(C)=CC(C)(C)N3` (stereo not shown) [Example 327, 2,5-Dihydro-10-cyano-5-(3-propenyl)-2,2,4-trimethyl-1H-[1]benzopyrano[3,4-f]quinoline], the Ki in assay [1] (setting [3]) came to 9.3 nM; in assay [2] (setting [4]), 1460 nM.

Turning to `COc1cccc2c1-c1ccc3c(c1C(CC(=O)c1ccccc1)O2)C(C)=CC(C)(C)N3` (stereo not shown) [Example 47, 2-(2,5-Dihydro-10-methoxy-2,2,4-trimethyl-1H-[1]benzopyrano[3,4-f]quinolin-5-yl)-1-phenylethanone], the values for the Ki in assay [1] (setting [3]) and in assay [2] (setting [4]) were 174 nM and ≥ 10000 nM, respectively.

Take `CCC1Oc2ccc(O)c(OC)c2-c2ccc3c(c21)C(C)=CC(C)(C)N3` (stereo not shown) [Example 376, 9-Hydroxy-10-methoxy-5-ethyl-2,2,4-trimethyl-2,5-dihydro-1H-[1]benzopyrano[3,4-f]quinoline]: the Ki was 0.78 nM in assay [1] (setting [3]) and 156 nM in assay [2] (setting [4]).

`COc1c(O)ccc2c1-c1ccc3c(c1[C@H]([C@H]1C=CCC1)O2)C(C)=CC(C)(C)N3` [Example 253, (−)(5S,3′R)2,5-Dihydro-9-hydroxy-10-methoxy-2,2,4-trimethyl-5-(3-cyclopentenyl)-1H-[1]benzopyrano[3,4-f]quinoline]: the Ki in assay [1] (setting [3]) came out at 0.38 nM; in assay [2] (setting [4]) it was 42 nM.

Consider `COC(=O)Oc1cccc(C2Oc3cccc(OC)c3-c3ccc4c(c32)C(C)=CC(C)(C)N4)c1` (stereo not shown) [Example 84, [3-(2,5-Dihydro-10-methoxy-2,2,4-trimethyl-1H-[1]benzopyrano[3,4-f]quinolin-5-yl)phenyl]methylcarbonate], for which the Ki was 17.3 nM in assay [1] (read-out: Ki (nM) GR) and ≥ 10000 nM in assay [2].

Consider `C=CCc1cc(C)cc(C2Oc3cccc(OC)c3-c3ccc4c(c32)C(C)=CC(C)(C)N4)c1` (stereo not shown) [Example 109, 2,5-Dihydro-10-methoxy-2,2,4-trimethyl-5-[3-methyl-5-(2-propenyl)phenyl]-1H-[1]benzopyrano[3,4-f]quinoline], for which the Ki was 6.1 nM in assay [1] (setting [3]) and ≥ 10000 nM in assay [2] (setting [4]).

Regarding `CC1=CC(C)(C)Nc2ccc3c(c21)C(c1cc(Cl)cc(Cl)c1)Oc1ccc(O)c(Cl)c1-3` (stereo not shown) [Example 223, 10-Chloro-9-hydroxy-5-(3,5-dichlorophenyl)-2,2,4-trimethyl-1H-2,5-dihydro-[1]benzopyrano[3,4-f]quinoline], the Ki was determined as 2.6 nM in assay [1] (setting [3]) and 297 nM in assay [2] (setting [4]).

`COc1cccc2c1-c1ccc3c(c1C(c1ccc(N4CCOCC4)cc1)O2)C(C)=CC(C)(C)N3` (stereo not shown) [Example 42, 2,5-Dihydro-10-methoxy-2,2,4-trimethyl-5-[4-(1-morpholinyl)phenyl]1H-[1]benzopyrano[3,4-f]quinoline]: the Ki in assay [1] (setting [3]) was 99 nM; in assay [2] (setting [4]), ≥ 10000 nM.

Take `COc1cccc2c1-c1ccc3c(c1[C@H]([C@H]1C=CCCC1)O2)C(C)=CC(C)(C)N3` [Example 392, (−)(5S,3′R)2,5-Dihydro-10-methoxy-2,2,4-trimethyl-5-(cyclohexen-3-yl)-1H-[1]benzopyrano[3,4-f]quinoline]: the Ki in assay [1] (Ki (nM) GR, GRX cytosol expressed in insect SF21 cells, [3H]-Dex ~0.9 nM, 4° C. overnight, Ki by Cheng-Prusoff, KL ~[…]) was 1.2 nM; in assay [2] (setting [4]), 487 nM.

As for `COc1c(O)ccc2c1-c1ccc3c(c1[C@H]([C@@H]1C=CCC1)O2)C(C)=CC(C)(C)N3` [Example 252], the Ki in assay [1] (setting [3]) worked out at 0.39 nM; in assay [2] (setting [4]), 102 nM.

Turning to `COc1cccc2c1-c1ccc3c(c1C(c1cccc(C(=O)O)c1)O2)C(C)=CC(C)(C)N3` (stereo not shown) [Example 108, 3-(2,5-Dihydro-10-methoxy-2,2,4-trimethyl-1H-[1]benzopyrano[3,4-f]quinolin-5-yl)benzoic Acid], the inhibition constant Ki was 638 nM in assay [1] (setting [3]) and > 10000 nM in assay [2] (setting [4]).

As for `C=CCC1Oc2cccc(OC)c2-c2ccc3c(c21)C(C)=CC(CC)(CC)N3` (stereo not shown) [Example 361, 2,5-Dihydro-10-methoxy-2,2-diethyl-4-methyl-5-allyl-1H-[1]benzopyrano[3,4-f]quinoline], the Ki in assay [1] (setting [3]) amounted to 95.7 nM; in assay [2] (setting [4]) it was 9140 nM.

With `C=CCC1Oc2ccc(OC(=O)CCCC(=O)N(C)C)c(OC)c2-c2ccc3c(c21)C(C)=CC(C)(C)N3` (stereo not shown) [Example 438], the Ki in assay [1] (setting [3]) was 0.89 nM; in assay [2] (setting [4]), 129 nM.

With `COc1cccc2c1-c1ccc3c(c1C(=Cc1ccc(Cl)cc1)O2)C(C)=CC(C)(C)N3` [Example 121, 5-[(4-chlorophenyl)methylene]-2,5-dihydro-10-methoxy-2,2,4-trimethyl-1H-[1]benzopyrano[3,4-f]quinoline], the Ki is 11.3 nM in assay [1] (setting [3]) and 672 nM in assay [2] (setting [4]).

For the compound `COc1cccc2c1-c1ccc3c(c1C(c1cccc(CCOS(C)(=O)=O)c1)O2)C(C)=CC(C)(C)N3` (stereo not shown) [Example 315, 2,5-Dihydro-10-methoxy-5-(3-(2-methanesulfonyloxyethyl)phenyl)-2,2,4-trimethyl-1H-[1]benzopyrano[3,4-f]quinoline], the Ki in assay [1] (setting [3]) is 13 nM; in assay [2] (setting [4]), ≥ 10000 nM.

On to `C=CCC1Oc2ccc(O)c(Cl)c2-c2ccc3c(c21)C(C)=CC(C)(C)N3` (stereo not shown) [Example 216, 10-Chloro-9-hydroxy-5-(3-propenyl)-2,2,4-trimethyl-1H-2,5-dihydro-[1]benzopyrano[3,4-f]quinoline], for which the Ki in assay [1] (read-out: Ki (nM) GR) came to 0.58 nM; in assay [2] (setting [4]), 7.6 nM.

Usually Ki stands for the dissociation constant of the complex between target and ligand, obtained from inhibition or displacement.

The values are drawn from US6506766B1 (Abbott Laboratories, priority 1998, dated 2003).
